Test results reported in patent US12643906B2, “Fused aza-heterocyclic amide compound and use thereof” (CSPC ZHONGQI PHARMACEUTICAL TECHNOLOGY (SHIJIAZHUANG) CO., …, priority 2020, dated 2026).
pIC50: −log10 of the molar value. Like-named read-outs stand apart in the source and are kept apart here.

Experiments:
Ba/F3 LMNA-NTRK1-G667C = molecular target: T1, Ba/F3 LMNA-NTRK1-G667C (Homo sapiens, UniProt P04629, G667C, cells depend on it); experiment: In vitro cell proliferation inhibition (MTT); type: cell-based, murine; settings: 72 h, read-out: IC50 Ba/F3 LMNA-NTRK1-G667C
T1 construct: fused on or other part: P02545 (Prelamin-A/C)
Procedure: (§1) Cells in the logarithmic growth phase were harvested and counted using a […]. The cell suspension with a certain density was pipetted uniformly and seeded into a 96-well plate with each well of 100 μL, and shaken to make the cells uniformly disperse into the wells. 100 μL of compound solution with certain concentration gradient was added into each well, and 3 duplicate wells were set for each concentration. The plate was cultured in a CO2 incubator at 37° C. for 72 h. 20 μL of MTT working solution (5 mg/mL) was added into each well, and the plate was placed at 37° C. for 4 h, and centrifuged at 1000 rpm for 5 min by a plate centrifuge. After 180 μL of culture medium was discarded, the plate was added with 150 μL of DMSO, and mixed well with a microplate shaker, the plate bottom was wiped, and optical density (OD) at 550 nm was detected with a microplate reader.

Ba/F3 ETV6-NTRK3-G696A = molecular target: T2, Ba/F3 ETV6-NTRK3-G696A (Homo sapiens, UniProt Q16288, G696A, cells depend on it); experiment: In vitro cell proliferation inhibition (MTT); type: cell-based, murine; settings: 72 h, read-out: IC50 Ba/F3 ETV6-NTRK3-G696A
T2 construct: fused on or other part: P41212 (Transcription factor ETV6)
Procedure: • Source of 6 kinds of cell lines for the test: KYinno Biotechnology (Beijing) Co., Ltd. • Cell type: murine B cells • Culture medium: RPMI-1640+10% FB S 2. Test Method
as §1

Ba/F3 ETV6-NTRK3-G623R = molecular target: T3, Ba/F3 ETV6-NTRK3-G623R (Homo sapiens, UniProt Q16288, G623R, cells depend on it); experiment: In vitro cell proliferation inhibition (MTT); type: cell-based, murine; settings: 72 h, read-out: IC50 Ba/F3 ETV6-NTRK3-G623R
T3 construct: fused on or other part: P41212 (Transcription factor ETV6)
Procedure: as §1

Ba/F3 LMNA-NTRK1 = molecular target: T4, Ba/F3 LMNA-NTRK1 (Homo sapiens, UniProt P04629); experiment: In vitro cell proliferation inhibition (MTT); type: cell-based, murine; settings: 72 h, read-out: IC50 Ba/F3 LMNA-NTRK1
T4 construct: fused on or other part: P02545 (Prelamin-A/C)
Procedure: as §1

Ba/F3 LMNA-NTRK1-G595R = molecular target: T5, Ba/F3 LMNA-NTRK1-G595R (Homo sapiens, UniProt P04629, G595R, cells depend on it); experiment: In vitro cell proliferation inhibition (MTT); type: cell-based, murine; settings: 72 h, read-out: IC50 Ba/F3 LMNA-NTRK1-G595R
T5 construct: fused on or other part: P02545 (Prelamin-A/C)
Procedure: as §1

Ba/F3 ETV6-NTRK2 = molecular target: T6, Ba/F3 ETV6-NTRK2 (Homo sapiens, UniProt Q16620); experiment: In vitro cell proliferation inhibition (MTT); type: cell-based, murine; settings: 72 h, read-out: IC50 Ba/F3 ETV6-NTRK2
T6 construct: fused on or other part: P41212 (Transcription factor ETV6)
Procedure: as §1

ALK = molecular target: T7, ALK (Homo sapiens, UniProt Q9UM73); experiment: Kinase inhibition assay with fluorescein labeled peptide, ALK; type: biochemical
T7 construct: purchased Carna 08-105
Procedure: Compounds were diluted to a certain concentration in DMSO with 4-fold gradients. The compound with a certain concentration, an enzyme solution and DMSO were added into a 384-well plate, and the plate was incubated at room temperature for 10 min. […] The plate was subjected to reading.

[1] = system: Ba/F3 LMNA-NTRK1-G595R model; settings: 100 mg/kg, gavage
Procedure: (§2) The cells in the logarithmic growth phase were collected and re-suspending in serum-free culture medium to make the cell concentration at […] cells/mL. The cell suspension was added with equal volume of Matrigel to make the final cell concentration at 3×10^7-5×10^7 cells/mL. The animal model was established by subcutaneously inoculating 0.1 mL of tumor cell suspension in the axilla of the forelimb of NuNu mice (female, 4-6 weeks, Beijing Vital River Laboratory Animal Technology Co., Ltd.) in an amount of 3×10^6-5×10^6 cells/mouse.
(§3) The maximum and the minimum tumor diameters of the xenografts in nude mice were measured using a vernier caliper, and the tumor volume (TV) was calculated according to the formula: V=½×a×b^2, where a and b represent the maximum and minimum diameters of the tumor mass, respectively. Nude mice with appropriate tumor volume were selected and the mice were evenly divided into 7 groups of 6 mice (100-200 mm^3) by tumor volume using a random number method.
(§4) Tumor diameters were measured twice weekly and tumor volume was calculated. […] (where Ti represents the mean tumor volume of a certain administration group on a certain day; TO represents the mean tumor volume of the administration group at the start of administration, Vi represents the mean tumor volume of the vehicle control group on a certain day (same day as Ti) and V0 represents the mean tumor volume of the vehicle control group at the start of administration); • Tumor inhibition rate: at the end of the test, the animals were executed by removing the cervical vertebrae.

[2] = system: Ba/F3 LMNA-NTRK1-G667C model; settings: gavage
Procedure: as §2, §3, §4

GI50 (Ba/F3 LMNA-NTRK1-G667C) [nM]	GI50 (Ba/F3 ETV6-NTRK3-G696A) [nM]	GI50 (Ba/F3 ETV6-NTRK3-G623R) [nM]	GI50 (Ba/F3 LMNA-NTRK1) [nM]	GI50 (Ba/F3 LMNA-NTRK1-G595R) [nM]	GI50 (Ba/F3 ETV6-NTRK2) [nM]	Compound	also measured
1.47	–	–	–	–	–	CC(C)(O)C(=O)N1CCC(c2ccc(NC(=O)c3cnn4ccc(N5C[C@@H](F)C[C@@H]5c5cc(F)ccc5F)nc34)cc2)CC1 [Compound 13]	–
1.53	0.112	0.237	0.635	0.215	1.13	C[C@@H](O)C(=O)N1CCC(c2ccc(NC(=O)c3cnn4ccc(N5C[C@@H](F)C[C@@H]5c5cc(F)ccc5F)nc34)cc2)CC1 [Compound 12]	–
42.7	202	46.5	1.03	230	13.4	COc1cc(N2CCN(C)CC2)ccc1C(=O)Nc1cnn2ccc(N3CCC[C@@H]3c3cc(F)ccc3F)nc12 [Compound D2]	–
4.93	0.435	0.852	–	0.525	–	O=C(Nc1ccc(N2CCn3c(nnc3C(F)(F)F)C2)cc1)c1cnn2ccc(N3C[C@@H](F)C[C@@H]3c3cc(F)ccc3F)nc12 [Compound 23]	–
3.43	–	–	–	–	–	O=C(Nc1ccc(CN2CCN(C(=O)CO)CC2)cc1)c1cnn2ccc(N3C[C@@H](F)C[C@@H]3c3cc(F)ccc3F)nc12 [Compound 18, 5-((2R,4S)-2-(2,5-difluorophenyl)-4-fluoropyrrolidin-1-yl)-N-(4-(4-(2-(2-hydroxyacetyl)piperazin-1-yl)methyl)phenyl)pyrazolo[1,5-a]pyrimidine-3-carboxamide]	–
1.78	0.736	0.499	–	0.156	–	O=C(Nc1ccc(N2CCN(C(=O)C3CC3)CC2)cc1)c1cnn2ccc(N3C[C@@H](F)C[C@@H]3c3cc(F)ccc3F)nc12 [Compound 7]	–

Compound	GI50 (Ba/F3 LMNA-NTRK1-G667C) [nM]	GI50 (Ba/F3 ETV6-NTRK3-G696A) [nM]	GI50 (Ba/F3 ETV6-NTRK3-G623R) [nM]	GI50 (Ba/F3 LMNA-NTRK1) [nM]	GI50 (Ba/F3 LMNA-NTRK1-G595R) [nM]	GI50 (Ba/F3 ETV6-NTRK2) [nM]	also measured
C[C@@H]1CCc2ncc(F)cc2[C@H]2CCCN2c2ccn3ncc(c3n2)C(=O)N1 [LOXO-195, reference compound]	112	4.5	4.54	9.08	–	2.89	pIC50 (ALK): 6.41; Number of animals (Survival/total) [1]: (6/6); Rate of weight gain (%) [1]: 8.59%; TGI (%) [1]: 124.6%; Tumor volume (mm^3) [1]: 66.3 ± 37.1 mm^3; Tumor weight [1]: 0.12 ± 0.06 g; Tumor weight inhibition rate (%) [1]: 76.58%; Number of animals (Survival/total) ([2]; 100 mg/kg): (6/6); Rate of weight gain (%) ([2]; 100 mg/kg): 2.38%; TGI (%) ([2]; 100 mg/kg): 36.4%; Tumor volume (mm^3) ([2]; 100 mg/kg): 381.2 ± 134.4 mm^3; Tumor weight ([2]; 100 mg/kg): 0.43 ± 0.18 g; Tumor weight inhibition rate (%) ([2]; 100 mg/kg): 21.57%; Number of animals (Survival/total) ([2]; 200 mg/kg): (5/6); Rate of weight gain (%) ([2]; 200 mg/kg): 7.88%; TGI (%) ([2]; 200 mg/kg): 95.4%; Tumor volume (mm^3) ([2]; 200 mg/kg): 154.5 ± 92.2 mm^3; Tumor weight ([2]; 200 mg/kg): 0.22 ± 0.16 g; Tumor weight inhibition rate (%) ([2]; 200 mg/kg): 59.96%
